{"source": "paper PMC11952641", "about": "“A Novel D-peptide modulates DCLK1 Gelsolin interactions, reducing PDAC tumor growth” (Research Square, 2025)", "molecules": {"B1": {"name": "human DCLK1 isoform 4 (β-short) (natural protein, UniProt O15075-4 1-433, looked up)", "chain": "MLELIEVNGTPGSQLSTPRSGKSPSPSPTSPGSLRKQRSSQHGGSSTSLASTKVCSSMDENDGPGEEVSEEGFQIPATITERYKVGRTIGDGNFAVVKECVERSTAREYALKIIKKSKCRGKEHMIQNEVSILRRVKHPNIVLLIEEMDVPTELYLVMELVKGGDLFDAITSTNKYTERDASGMLYNLASAIKYLHSLNIVHRDIKPENLLVYEHQDGSKSLKLGDFGLATIVDGPLYTVCGTPTYVAPEIIAETGYGLKVDIWAAGVITYILLCGFPPFRGSGDDQEVLFDQILMGQVDFPSPYWDNVSDSAKELITMMLLVDVDQRFSAVQVLEHPWVNDDGLPENEHQLSVAGKIKKHFNTGPKPNSTAAGVSVIATTALDKERQVFRRRRNQDVRSRYKAQPAPPELNSESEDYSPSSSETVRSPNSPF", "modifications": "biotin (NHS-LC-biotin) in the library screen only", "notes": "human DCLK1 isoform 4 (β-short, NP_001182345); also called Doublecortin-like kinase 1 isoform 4; beta-short; source: E. coli BL21(DE3) pLPP with the pET19-DCLK1 isoform 4 plasmid, purified"}}, "key": {"DCLK1 isoform 4 [1]": {"target": "DCLK1 isoform 4", "assay": "SPR binding to DCLK1 isoform 4", "parameters": "species or system human", "details": "DCLK1 isoform 4 binding to Gelsolin, Fig. 3F", "description": "(§1) Purification of human DCLK1 isoform 4 was performed at the University of Oklahoma Protein Production and Characterization Core Facility (Norman, OK) using an E. coli strain BL21(DE3) pLPP containing the pET19-DCLK1 isoform 4 plasmid. For Bio-layer Interferometry (BLI) experiments, a C-terminal DCLK1 isoform 2/4 His-tagged protein was used (NovoPro, Shanghai, China). All His-tagged proteins were dialyzed using PBS/glycerol to remove imidazole."}, "DCLK1 isoform 4 [2]": {"test_system": "DCLK1 isoform 4", "assay": "ELISA: pGSN binding to DCLK1 isoform 4", "parameters": "species or system human", "details": "1% gelatin blocking, RT, 450 nm, Fig. S2", "description": "as §1\n(§2) Polystyrene microtitre Immulon 2HB plate was coated with freshly prepared (400 ng/50 ml) DCLK1 isoform 4 ([…]) in 0.1 M NaHCO3, pH 8.6, overnight at 4C. After blocking with 1% gelatin in TTBS at RT, different concentrations of gelsolin or FGF19 were added (2 mg/50ul/well, 1 mg/well, 0.5 mg/well, and 0.25 mg/well at […], proteins diluted in TTBS), and incubated at RT. To study the competitive ability of peptides, we used 20 mg/well of either D-peptide 1, D-peptide 3, D-peptide 5, or the C-terminal peptide antigen for the mAb CBT-15. After incubation at RT, plates were washed with TTBS, and bound gelsolin or FGF19 was detected. […] Detection was by alkaline phosphatase-conjugated goat anti-mouse IgG (ab97020; Abcam, Waltham, MA) followed by 1-STEP NBT/BCIP substrate (#34042; ThermoFisher Scientific, Waltham, MA) and quantified at 450 nm on a microplate reader."}, "DCLK1 isoform 1": {"test_system": "DCLK1 isoform 1", "assay": "Cross-reactivity to DCLK1 isoform 1", "assay_type": "binding, human"}, "[3]": {"target": "T1, DCLK1 isoform 4 (human His-tagged DCLK1 C-terminal recombinant protein) (Homo sapiens, UniProt O15075)", "T1 sequence (O15075 687-740 limits assumed)": "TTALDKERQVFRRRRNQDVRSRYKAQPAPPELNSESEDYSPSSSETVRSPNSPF", "assay": "BLI evaluation of D-peptide binding to DCLK1 NKEBD", "details": "DCLK1 isoform 4 immobilized on biosensor, PBS/0.05%Tween20/1%DMSO, from 30 μM in a 1:3 series", "description": "as §1\nHuman His-tagged DCLK1 C-terminal recombinant protein from NovoPro was used. Binding to the sensor was carried out in PBS/0.05%Tween20/1%DMSO. Response is measured as a nm shift in the interference pattern and is proportional to the number of molecules bound to the biosensor’s surface. Initially, all peptides were tested at 5 and 30 μM. The top binders were tested again with eight different concentrations, starting at 30 μM and diluted in a 1:3 series to determine the dissociation constant (KD)."}, "DCLK1 isoform 4 / CBT-15": {"test_system": "DCLK1 isoform 4 / CBT-15", "assay": "Competition assay: CBT-15 binding to DCLK1 isoform 4", "parameters": "species or system human", "details": "Fig. 1D, mean ± SEM, *p < 0.01"}, "DCLK1 isoform 4-pGSN": {"test_system": "DCLK1 isoform 4-pGSN", "assay": "ELISA: effect of peptides on DCLK1-Gelsolin PPI", "assay_type": "binding, human", "details": "peptide 20 mg/well (so in the source), pGSN 2 μg/ml, Fig. 3H", "description": "as §1, §2"}, "DCLK1 isoform 4 [4]": {"test_system": "DCLK1 isoform 4", "assay": "D-peptide library screen for binding to DCLK1 isoform 4, excluding isoform 1 binders", "parameters": "species or system human", "details": "bead library screen, biotin-labeled DCLK1 isoform 4", "description": "An aliquot from each sub-library, containing approximately 1000 beads, was added to a well of a 96-well polystyrene multi-well plate. From 1.5 to 2 ml of Superblock (Pierce Chemical Company, Rockford, IL.) reagent, 0.1% gelatin, or 1%(w/v) bovine serum albumin (BSA) in phosphate-buffered saline (PBS), pH 7.4, was added to each well, and the plates were incubated for one to two hours at room temperature (RT), with periodic or continuous mixing by gentle rocking. Purified DCLK1 isoform 4 protein was labeled with biotin using the biotinylating reagent NHS-LC-biotin (Pierce Chemical Company) according to the supplier’s instructions. Biotin-labeled protein was detected using AP-conjugated to neutravidin (Pierce Chemical Company) incubated with the beads for 30 minutes, after which the beads were washed three times with a Tris-buffered saline solution (pH 7.5), with the second wash being left in contact with the beads for 30 minutes. One-step NBT/BCIP (nitro-blue tetrazolium chloride/5-bromo-4-chloro-3’-indolyphosphate p-toluidine salt) (Pierce Chemical Co.) was then added and the beads observed under a low-power microscope until some of the beads had turned a dark purple color. The beads were washed with PBS twice, followed by 1% acetic acid and a final wash in water. Dark purple-black beads were removed using a small-bore pipette and subjected to amino acid sequence analysis. […]"}, "AsPC-1 xenografts": {"test_system": "AsPC-1 xenografts", "assay": "AsPC-1 xenograft tumor growth in athymic nude mice", "assay_type": "in vivo, athymic nude (Foxn1nu/Foxn1nu) mice", "details": "10 mg/kg subcutaneously every three days; day 36", "description": "Athymic nude (Foxn1^nu/Foxn1^nu) mice were purchased from the Jackson Laboratory (Bar Harbor, Maine) and housed in pathogen-free conditions. AsPC-1 cells (1 × 10^7) were injected subcutaneously into the flanks of 4- to 6-week-old mice (n=3/group). Tumors were measured using a caliper and the volume was calculated as (length × width^2) × 0.5. Once tumors achieved an average size of ~100 mm^3, mice were injected subcutaneously with selected D-peptides at a dose of 10 mg/kg. Treatments were continued every three days until day 36."}, "[5]": {"test_system": "Capan-1 pancreatic cancer cells", "assay": "Colony formation assay, Capan-1", "assay_type": "cell-based", "details": "Fig. 2B, blinded study"}, "[6]": {"test_system": "AsPC-1 pancreatic cancer cells", "assay": "Colony formation assay, AsPC-1", "assay_type": "cell-based", "details": "Fig. 2A, blinded study"}, "DCLK1 isoform 4 [7]": {"test_system": "DCLK1 isoform 4", "assay": "ELISA: FGF19 binding to DCLK1 isoform 4", "parameters": "species or system human", "details": "RT, 450 nm, Fig. 3H", "description": "as §1, §2"}, "plasma gelsolin": {"target": "T2, plasma gelsolin (UniProt P06396 28-782)", "T2 construct": "plasma gelsolin (pGSN), the extracellular form of gelsolin; The source is told for the ELISA only; also called pGSN; source: bought: Abcam (ab233671)", "T2 sequence (P06396 28-782)": "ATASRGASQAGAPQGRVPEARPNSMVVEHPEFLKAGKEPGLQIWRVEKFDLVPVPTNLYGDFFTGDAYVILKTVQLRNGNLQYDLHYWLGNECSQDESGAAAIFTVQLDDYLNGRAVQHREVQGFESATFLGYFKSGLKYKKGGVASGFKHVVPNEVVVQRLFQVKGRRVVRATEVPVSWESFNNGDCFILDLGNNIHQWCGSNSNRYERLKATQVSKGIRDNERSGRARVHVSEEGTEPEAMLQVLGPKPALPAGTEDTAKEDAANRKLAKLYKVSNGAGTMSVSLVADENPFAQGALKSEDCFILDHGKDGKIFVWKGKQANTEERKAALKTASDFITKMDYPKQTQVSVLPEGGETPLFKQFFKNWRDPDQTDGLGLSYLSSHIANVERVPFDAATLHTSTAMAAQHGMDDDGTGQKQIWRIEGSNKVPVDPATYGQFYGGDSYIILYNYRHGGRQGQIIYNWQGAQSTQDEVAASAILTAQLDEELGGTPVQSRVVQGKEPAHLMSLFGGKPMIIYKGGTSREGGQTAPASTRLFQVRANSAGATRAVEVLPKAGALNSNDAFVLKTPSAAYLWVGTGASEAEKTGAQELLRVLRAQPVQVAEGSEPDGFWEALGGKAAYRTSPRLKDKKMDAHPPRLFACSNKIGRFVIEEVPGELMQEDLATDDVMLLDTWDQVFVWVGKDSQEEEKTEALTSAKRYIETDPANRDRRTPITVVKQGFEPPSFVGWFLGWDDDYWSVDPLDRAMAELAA", "assay": "SPR; who was immobilised and the conditions not given", "details": "both partners purified"}}, "note": "Non-standard residues stand in square brackets, D forms with d. Residues, ends and D or L forms follow the SMILES beside them.", "data": [{"molecule": "Gelsolin", "values": [{"measurement": "Kd", "setting": "DCLK1 isoform 4 [1]", "value": "~100", "unit": "nM"}, {"measurement": "binding to DCLK1 isoform 4 across the gradient", "setting": "DCLK1 isoform 4 [2]", "value": "consistent, linear binding"}]}, {"molecule": "NCC(=O)N[C@H](Cc1c[nH]c2ccccc12)C(=O)N[C@H](Cc1ccc(O)cc1)C(=O)NCC(=O)N[C@H](Cc1c[nH]c2ccccc12)C(=O)NCC(=O)N[C@H](CC(=O)O)C(=O)N[C@H](CC(=O)O)C(=O)O", "note": "[D-peptide 1] (H-G[dW][dY]G[dW]G[dD][dD]-OH)", "values": [{"measurement": "cross-reactivity to isoform 1", "setting": "DCLK1 isoform 1", "value": "minimal cross-reactivity to isoform 1"}, {"measurement": "Kd", "setting": "[3]", "value": 396, "unit": "nM"}, {"measurement": "inhibition of CBT-15 binding to DCLK1 isoform 4", "setting": "DCLK1 isoform 4 / CBT-15", "value": "None of these D-peptides significantly inhibited CBT-15 binding"}, {"measurement": "effect on pGSN binding to DCLK1 isoform 4", "setting": "DCLK1 isoform 4-pGSN", "value": "did not block the PPI interaction"}, {"measurement": "improvement of pGSN binding to DCLK1", "setting": "DCLK1 isoform 4-pGSN", "value": "seemed to improve pGSN binding to DCLK1"}, {"measurement": "specific binding to isoform 4", "setting": "DCLK1 isoform 4 [4]", "value": "binds specifically to DCLK1 isoform 4"}, {"measurement": "necrosis or apoptosis in tumors", "setting": "AsPC-1 xenografts", "value": "without inducing necrosis or apoptosis"}, {"measurement": "colony formation", "setting": "[5]", "value": "significantly reduced colony formation at low micromolar concentrations"}, {"measurement": "colony formation", "setting": "[6]", "value": "significantly reduced colony formation at low micromolar concentrations"}]}, {"molecule": "FGF19: candidate DCLK1 interacting protein known to be extracellularly localized (969-FG-025; Bio-Techne)", "values": [{"measurement": "binding to DCLK1 isoform 4", "setting": "DCLK1 isoform 4 [7]", "value": "bound to DCLK1 isoform 4 similarly to pGSN"}]}, {"molecule": "B1", "values": [{"measurement": "Kd", "setting": "plasma gelsolin", "value": "~100", "unit": "nM"}]}]}
